Data on 28 compounds can be found in PMC2248166, “Quantitative peptide binding motifs for 19 human and mouse MHC class I molecules derived using positional scanning combinatorial peptide libraries” (Immunome Research, 2008).

pIC50: −log10 of the molar value. Where a SMILES comes first, the peptide text is derived from it.

For this assay, the target named is HLA B*1503 (Homo sapiens, UniProt P01889, A329T/A93T/A95T/C349S/D201E/D98Y/E187L/E204Q/K202T/N87E/Q94N/R155S/R180L/S121R/S35A/V306I/V36M/Y140S/Y91S). Description: biochemical. Type of assay: binding.

What is called pIC50 is the negative decadic logarithm of the IC50, by convention in mol/L. `CSCC[C@H](NC(=O)[C@H](CO)NC(=O)[C@H](CCCNC(=N)N)NC(=O)[C@@H]1CCCN1C(=O)[C@H](Cc1ccccc1)NC(=O)[C@H](CCCCN)NC(=O)[C@H](CO)NC(=O)[C@H](CCCCN)NC(=O)[C@H](C)N)C(=O)O` [3102.1076] (H-AKSKFPRSM-OH) gave a pIC50 of 9.59. To `CC[C@H](C)[C@H](NC(=O)CNC(=O)[C@H](C)NC(=O)[C@H](Cc1ccc(O)cc1)NC(=O)[C@H](CCCCN)NC(=O)[C@@H](N)CO)C(=O)N[C@@H](CC(N)=O)C(=O)N[C@H](C(=O)N[C@@H](CC(C)C)C(=O)O)[C@@H](C)CC` [3102.1077] (H-SKYAGINIL-OH) belongs 9.57. To `CC[C@H](C)[C@H](NC(=O)[C@H](CCCCN)NC(=O)[C@@H](N)CCSC)C(=O)N[C@H](C(=O)N[C@@H](CCCNC(=N)N)C(=O)N1CCC[C@H]1C(=O)N[C@@H](CCCNC(=N)N)C(=O)N[C@@H](Cc1c[nH]cn1)C(=O)N[C@@H](Cc1ccccc1)C(=O)O)[C@@H](C)O` [3102.1200] (H-MKITRPRHF-OH) belongs 9.00. The figure for `CC[C@H](C)[C@H](NC(=O)[C@H](CO)NC(=O)[C@H](CCCNC(=N)N)NC(=O)[C@H](CCCNC(=N)N)NC(=O)[C@@H](NC(=O)[C@@H](NC(=O)[C@@H](NC(=O)[C@H](CCCCN)NC(=O)[C@@H](N)Cc1ccccc1)C(C)C)[C@@H](C)O)[C@@H](C)O)C(=O)O` [3102.1295] (H-FKVTTRRSI-OH) is 8.34. `CC[C@H](C)[C@H](N)C(=O)N[C@@H](CCCCN)C(=O)N[C@@H](CO)C(=O)N[C@@H](Cc1ccc(O)cc1)C(=O)N[C@H](C(=O)N[C@H](C(=O)N[C@@H](CCCNC(=N)N)C(=O)N[C@H](C(=O)N[C@@H](Cc1ccccc1)C(=O)O)C(C)C)[C@@H](C)CC)[C@@H](C)O` [3102.1137] (H-IKSYTIRVF-OH) showed a pIC50 of 8.80.

`CC[C@H](C)[C@H](N)C(=O)N[C@@H](CCCCN)C(=O)N[C@H](C(=O)N[C@H](C(=O)N[C@@H](C)C(=O)N[C@@H](C)C(=O)N[C@@H](CO)C(=O)N1CCC[C@H]1C(=O)N[C@@H](CCSC)C(=O)O)[C@@H](C)O)C(C)C` [3102.1251] (H-IKVTAASPM-OH) had a pIC50 of 8.55. Against the preceding compound, the pIC50 is 0.25 log units lower.

For `CC[C@H](C)[C@H](NC(=O)[C@@H](NC(=O)[C@H](CCC(=O)O)NC(=O)[C@H](CCC(=O)O)NC(=O)[C@H](CO)NC(=O)[C@H](CCSC)NC(=O)[C@@H](N)CC(C)C)[C@@H](C)O)C(=O)N[C@@H](CC(=O)O)C(=O)N[C@@H](Cc1ccccc1)C(=O)O` [3102.1106] (H-LMSEETIDF-OH), the pIC50 was 7.92. To `CSCC[C@H](NC(=O)[C@@H](N)CCCCN)C(=O)N[C@H](C(=O)N[C@@H](CCCNC(=N)N)C(=O)N[C@H](C(=O)N[C@@H](Cc1ccccc1)C(=O)N[C@@H](CC(N)=O)C(=O)N[C@@H](CCCCN)C(=O)N[C@@H](Cc1ccccc1)C(=O)O)C(C)C)[C@@H](C)O` [3102.1188] (H-KMTRVFNKF-OH) belongs 9.37; to `CC[C@H](C)[C@H](NC(=O)[C@H](CO)NC(=O)[C@H](CC(C)C)NC(=O)[C@@H](NC(=O)[C@H](CCCCN)NC(=O)[C@@H](N)Cc1c[nH]c2ccccc12)C(C)C)C(=O)N[C@@H](CCSC)C(=O)N[C@@H](C)C(=O)N[C@@H](Cc1ccccc1)C(=O)O` [3102.1300] (H-WKVLSIMAF-OH), 8.03. To `CC(C)C[C@H](NC(=O)[C@@H](NC(=O)[C@H](CC(N)=O)NC(=O)[C@@H]1CCCN1C(=O)[C@@H]1CCCN1C(=O)[C@H](CO)NC(=O)[C@@H](NC(=O)[C@H](CO)NC(=O)[C@@H](N)CO)C(C)C)C(C)C)C(=O)O` [3102.1131] (H-SSVSPPNVL-OH) belongs 7.74.

In the case of `CC[C@H](C)[C@H](NC(=O)[C@H](Cc1c[nH]cn1)NC(=O)[C@@H](NC(=O)[C@H](Cc1ccc(O)cc1)NC(=O)[C@H](CCC(N)=O)NC(=O)[C@@H](N)CC(C)C)C(C)C)C(=O)N[C@@H](CC(N)=O)C(=O)N[C@@H](CCC(=O)O)C(=O)N[C@@H](CC(C)C)C(=O)O` [3102.1187] (H-LQYVHINEL-OH), the pIC50 is 8.43. The figure for `CC[C@H](C)[C@H](NC(=O)[C@H](CO)NC(=O)[C@H](CCC(N)=O)NC(=O)[C@H](CCC(N)=O)NC(=O)[C@H](CC(C)C)NC(=O)[C@H](Cc1ccccc1)NC(=O)[C@H](CC(C)C)NC(=O)[C@@H](N)C(C)C)C(=O)N[C@@H](Cc1ccccc1)C(=O)O` [3102.1081] (H-VLFLQQSIF-OH) is 9.21.

With `CC[C@H](C)[C@H](NC(=O)[C@H](CC(C)C)NC(=O)[C@@H](NC(=O)[C@H](CO)NC(=O)[C@@H](NC(=O)[C@H](CCCCN)NC(=O)[C@H](C)N)[C@@H](C)O)[C@@H](C)O)C(=O)N[C@@H](Cc1ccccc1)C(=O)N[C@@H](Cc1ccccc1)C(=O)O` [3102.1088] (H-AKTSTLIFF-OH), the pIC50 was 8.80. This pIC50 lies 0.41 log units lower than the previous one. Regarding `CC[C@H](C)[C@H](NC(=O)[C@H](CC(=O)O)NC(=O)[C@@H](NC(=O)[C@H](Cc1ccccc1)NC(=O)[C@@H](NC(=O)[C@H](CCCCN)NC(=O)[C@@H](N)Cc1ccc(O)cc1)C(C)C)[C@@H](C)O)C(=O)N[C@@H](CO)C(=O)N[C@@H](CCSC)C(=O)O` [3102.1298] (H-YKVFTDISM-OH), the pIC50 is 8.66. This pIC50 and that of the compound before are within 0.2 log units of each other. The figure for `C[C@@H](O)[C@H](NC(=O)[C@H](CO)NC(=O)CNC(=O)[C@H](CCCNC(=N)N)NC(=O)[C@H](CC(N)=O)NC(=O)CNC(=O)[C@@H](N)CO)C(=O)N[C@@H](CO)C(=O)N[C@@H](Cc1ccccc1)C(=O)O` [3102.1101] (H-SGNRGSTSF-OH) is 7.60. The figure for `CC(C)C[C@H](NC(=O)[C@H](CO)NC(=O)[C@@H](NC(=O)[C@H](CCCNC(=N)N)NC(=O)[C@H](CO)NC(=O)[C@H](CC(C)C)NC(=O)[C@H](Cc1ccc(O)cc1)NC(=O)[C@H](CCC(N)=O)NC(=O)[C@@H](N)CO)C(C)C)C(=O)O` [3102.1130] (H-SQYLSRVSL-OH) is 9.62; for `CC(C)[C@H](NC(=O)[C@H](CCCCN)NC(=O)[C@@H](N)CCCCN)C(=O)N[C@@H](Cc1ccc(O)cc1)C(=O)N[C@H](C(=O)N[C@@H](Cc1ccccc1)C(=O)N[C@@H](Cc1ccccc1)C(=O)N[C@@H](CCCCN)C(=O)N[C@@H](Cc1ccccc1)C(=O)O)[C@@H](C)O` [3102.1257] (H-KKVYTFFKF-OH) it is 8.44; for `CC[C@H](C)[C@H](NC(=O)[C@H](CO)NC(=O)[C@H](CC(=O)O)NC(=O)[C@H](CO)NC(=O)[C@H](CC(N)=O)NC(=O)[C@H](CCC(N)=O)NC(=O)[C@H](CCC(N)=O)NC(=O)[C@@H](N)CO)C(=O)N[C@@H](Cc1ccccc1)C(=O)O` [3102.1340] (H-SQQNSDSIF-OH) it is 8.72.

On to `CC(C)C[C@H](NC(=O)[C@H](CC(C)C)NC(=O)[C@@H](NC(=O)[C@H](CO)NC(=O)[C@H](CO)NC(=O)[C@H](CCCCN)NC(=O)[C@@H](N)CCCCN)[C@@H](C)O)C(=O)N[C@H](C(=O)N[C@@H](Cc1ccccc1)C(=O)O)[C@@H](C)O` [3102.1189] (H-KKSSTLLTF-OH), for which the negative logarithm of the IC50 (pIC50) is 9.44. The figure for `CSCC[C@H](NC(=O)[C@H](Cc1ccc(O)cc1)NC(=O)[C@H](CC(N)=O)NC(=O)[C@H](Cc1ccc(O)cc1)NC(=O)[C@H](CO)NC(=O)[C@H](CCCCN)NC(=O)[C@@H](NC(=O)[C@H](CCCCN)NC(=O)[C@@H](N)CCCNC(=N)N)C(C)C)C(=O)O` [3102.1285] (H-RKVKSYNYM-OH) is 8.59; for `NCCCC[C@H](NC(=O)[C@H](CC(=O)O)NC(=O)[C@H](CC(N)=O)NC(=O)[C@H](CC(N)=O)NC(=O)[C@H](Cc1ccc(O)cc1)NC(=O)[C@H](CCCCN)NC(=O)[C@@H](N)CCCCN)C(=O)N[C@@H](CO)C(=O)N[C@@H](Cc1ccccc1)C(=O)O` [3102.1179] (H-KKYNNDKSF-OH) it is 10.11; for `CSCC[C@H](NC(=O)[C@H](CCSC)NC(=O)[C@H](CCC(=O)O)NC(=O)[C@H](C)N)C(=O)N[C@@H](C)C(=O)N1CCC[C@H]1C(=O)N[C@@H](CO)C(=O)N[C@@H](CCSC)C(=O)N[C@@H](Cc1ccccc1)C(=O)O` [3102.1211] (H-AEMMAPSMF-OH) it is 7.77.

With `CC[C@H](C)[C@H](NC(=O)[C@H](CC(C)C)NC(=O)[C@H](CCC(=O)O)NC(=O)[C@@H](NC(=O)[C@@H](NC(=O)[C@H](CCC(N)=O)NC(=O)[C@@H](N)CO)[C@@H](C)O)[C@@H](C)CC)C(=O)N[C@@H](C)C(=O)N[C@@H](Cc1ccccc1)C(=O)O` [3102.1343] (H-SQTIELIAF-OH), the pIC50 was 9.68. The figure for `CC(C)C[C@H](NC(=O)[C@H](C)NC(=O)[C@H](CCC(N)=O)NC(=O)[C@H](CCC(N)=O)NC(=O)[C@@H](NC(=O)[C@@H](N)Cc1ccccc1)[C@@H](C)O)C(=O)N[C@@H](CO)C(=O)N[C@@H](CO)C(=O)N[C@@H](Cc1ccccc1)C(=O)O` [3102.1087] (H-FTQQALSSF-OH) is 8.19; for `CC(C)[C@H](NC(=O)[C@H](CCC(N)=O)NC(=O)[C@H](CO)NC(=O)[C@@H](NC(=O)[C@H](CO)NC(=O)[C@@H](NC(=O)[C@H](CCC(N)=O)NC(=O)[C@@H](N)Cc1ccc(O)cc1)[C@@H](C)O)C(C)C)C(=O)N[C@@H](C)C(=O)O` [3102.1307] (H-YQTSVSQVA-OH) it is 8.82; for `CC(C)C[C@H](N)C(=O)N[C@@H](CCCCN)C(=O)N[C@@H](CO)C(=O)N1CCC[C@H]1C(=O)N[C@@H](CCCCN)C(=O)N[C@@H](CCCNC(=N)N)C(=O)N[C@@H](CS)C(=O)N[C@@H](CO)C(=O)N[C@@H](Cc1ccccc1)C(=O)O` [3102.1282] (H-LKSPKRCSF-OH) it is 8.57. In turn, `CC[C@H](C)[C@H](N)C(=O)N[C@@H](CC(C)C)C(=O)N[C@@H](Cc1c[nH]cn1)C(=O)N[C@@H](CO)C(=O)N[C@@H](CC(=O)O)C(=O)N[C@@H](Cc1ccc(O)cc1)C(=O)N[C@@H](CCC(N)=O)C(=O)N[C@@H](CC(C)C)C(=O)N[C@@H](Cc1ccccc1)C(=O)O` [3102.1141] (H-ILHSDYQLF-OH) had a pIC50 of 8.62. To `CC[C@H](C)[C@H](NC(=O)[C@@H](NC(=O)[C@@H](NC(=O)[C@H](C)NC(=O)[C@H](CCSC)NC(=O)[C@H](Cc1ccc(O)cc1)NC(=O)[C@H](C)NC(=O)[C@@H](N)CCCNC(=N)N)[C@@H](C)O)[C@@H](C)O)C(=O)N[C@@H](CC(C)C)C(=O)O` [3102.1091] (H-RAYMATTIL-OH) belongs 7.74.
